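48-hour exposure; five concentrations; linearly interpolated endpoints. TGI marks complete inhibition of growth.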
What was measured:
Test in all cases: growth of human tumour cells (NCI), 48 h
[1] = tested on: HOP-92 NSCLC
[2] = tested on: SK-MEL-5 melanoma
[3] = tested on: UACC-62 melanoma
[4] = tested on: DU-145 prostate
[5] = tested on: SK-MEL-28 melanoma
[6] = tested on: KM12 colon
[7] = tested on: OVCAR-4 ovarian
[8] = tested on: 786-0 renal
[9] = tested on: MOLT-4 leukemia
[10] = tested on: NCI-H226 lung
[11] = tested on: SW-620 colon
[12] = tested on: OVCAR-5 ovarian
[13] = tested on: HS 578T breast

O=C(c1ccccc1)N(C(=O)c1ccccc1)c1nc(SCc2ccccc2)ns1
TGI [1]: 73.6 µM | TGI [2]: 30.6 µM | TGI [3]: 42.9 µM | TGI [4]: > 100 µM | TGI [5]: 93.1 µM | TGI [6]: > 100 µM | TGI [7]: > 100 µM | TGI [8]: 70.5 µM | TGI [9]: 78 µM | TGI [10]: 78.7 µM | TGI [11]: > 100 µM | TGI [12]: 86.8 µM | TGI [13]: 86.3 µM

COC(=O)C(CCSC)NC(=O)CNC(=O)CSc1nnc(COc2ccc(Cl)cc2)n1-c1ccccc1 (configuration not stated)
TGI [1]: 32 µM | TGI [2]: 31.4 µM | TGI [3]: 30.3 µM | TGI [4]: 55.8 µM | TGI [5]: 33.3 µM | TGI [6]: 44.6 µM | TGI [7]: 50.1 µM | TGI [8]: 29.5 µM | TGI [9]: > 100 µM | TGI [10]: 36.9 µM | TGI [11]: 45.3 µM | TGI [12]: 34.7 µM | TGI [13]: 53.1 µM

O=C1Cc2c([nH]c3ccc(Br)cc23)-c2cc(O)c(O)cc2N1
TGI [1]: > 100 µM | TGI [3]: > 100 µM | TGI [4]: > 100 µM | TGI [5]: > 100 µM | TGI [6]: > 100 µM | TGI [7]: > 100 µM | TGI [8]: > 100 µM | TGI [9]: > 100 µM | TGI [10]: > 100 µM | TGI [11]: > 100 µM | TGI [12]: > 100 µM | TGI [13]: > 100 µM

CSC(=S)Nc1cccc(C)n1
TGI [1]: > 100 µM | TGI [2]: > 100 µM | TGI [3]: > 100 µM | TGI [4]: > 100 µM | TGI [5]: > 100 µM | TGI [6]: > 100 µM | TGI [7]: > 100 µM | TGI [8]: > 100 µM | TGI [9]: > 100 µM | TGI [10]: > 100 µM | TGI [11]: > 100 µM | TGI [12]: > 100 µM | TGI [13]: > 100 µM

CC(C)=CCN1CC(C)C(=O)Nc2ccccc21 (configuration not stated)
TGI [1]: > 100 µM | TGI [2]: > 100 µM | TGI [4]: > 100 µM | TGI [5]: > 100 µM | TGI [6]: > 100 µM | TGI [7]: > 100 µM | TGI [8]: > 100 µM | TGI [9]: > 100 µM | TGI [10]: > 100 µM | TGI [11]: > 100 µM | TGI [12]: > 100 µM | TGI [13]: > 100 µM

c1cc2nnc1SCCCSc1ccc(nn1)SCCCS2
TGI [1]: > 100 µM | TGI [2]: > 100 µM | TGI [3]: > 77.6 µM | TGI [4]: > 100 µM | TGI [5]: > 100 µM | TGI [6]: > 100 µM | TGI [7]: > 100 µM | TGI [8]: > 100 µM | TGI [9]: > 100 µM | TGI [10]: > 94.1 µM | TGI [11]: > 100 µM | TGI [12]: > 100 µM | TGI [13]: 99.2 µM

O=c1c2cc(S(=O)(=O)O)ccc2nc(COc2ccc(Oc3ccc(Cl)cc3Cl)cc2)n1-c1ccc(Oc2ccc(Cl)cc2)cc1Cl
TGI [1]: 31.4 µM | TGI [2]: 34.6 µM | TGI [3]: 34.7 µM | TGI [4]: > 100 µM | TGI [6]: > 100 µM | TGI [7]: 73.6 µM | TGI [8]: 40.7 µM | TGI [9]: 94.9 µM | TGI [10]: 48.9 µM | TGI [11]: 50.4 µM | TGI [12]: 55.1 µM | TGI [13]: 42.3 µM

Cc1ccc2nc(N/N=C/c3sccc3C)cc(C)c2c1
TGI [1]: > 100 µM | TGI [2]: > 100 µM | TGI [3]: > 100 µM | TGI [4]: > 100 µM | TGI [5]: > 100 µM | TGI [6]: > 100 µM | TGI [7]: > 100 µM | TGI [8]: > 100 µM | TGI [9]: > 100 µM | TGI [10]: > 100 µM | TGI [11]: > 100 µM | TGI [12]: > 100 µM | TGI [13]: > 100 µM

COc1ccc2c(c1)c1c(n2CCN(C)C)-c2ccccc2CC1
TGI [1]: 31 µM | TGI [2]: 32.7 µM | TGI [3]: 28 µM | TGI [4]: 29.4 µM | TGI [5]: 29.1 µM | TGI [6]: 28 µM | TGI [7]: 31.4 µM | TGI [8]: 30.4 µM | TGI [9]: 35.8 µM | TGI [10]: 24.6 µM | TGI [11]: 34.2 µM | TGI [12]: 32.2 µM | TGI [13]: 34.2 µM

Cc1ccc(-c2nc(N/N=C/C=C/c3ccccc3)c3ccccc3n2)cc1
TGI [1]: > 100 µM | TGI [2]: > 100 µM | TGI [3]: 48.1 µM | TGI [4]: 96.4 µM | TGI [5]: > 100 µM | TGI [6]: > 100 µM | TGI [7]: > 100 µM | TGI [8]: > 100 µM | TGI [9]: > 100 µM | TGI [10]: > 100 µM | TGI [11]: > 100 µM | TGI [12]: 48.1 µM | TGI [13]: > 100 µM

COc1ccc(N2C(=O)/C(=C\c3cc(OC)c(OC)c(OC)c3)SC2c2ccccc2)cc1 (configuration not stated)
TGI [1]: > 100 µM | TGI [2]: > 100 µM | TGI [3]: > 100 µM | TGI [4]: > 100 µM | TGI [5]: > 100 µM | TGI [6]: > 100 µM | TGI [7]: > 100 µM | TGI [8]: > 100 µM | TGI [9]: > 100 µM | TGI [10]: > 100 µM | TGI [11]: > 100 µM | TGI [12]: > 100 µM | TGI [13]: > 100 µM

Cc1cn(CCCCC2=NCCCN2)c(=O)[nH]c1=O
TGI [1]: 18.3 µM | TGI [2]: > 38.1 µM | TGI [3]: > 59.1 µM | TGI [4]: > 34.4 µM | TGI [5]: > 32.9 µM | TGI [6]: > 48.9 µM | TGI [7]: > 40.7 µM | TGI [8]: > 30.1 µM | TGI [9]: > 37.1 µM | TGI [10]: > 81.3 µM | TGI [11]: > 37 µM | TGI [12]: > 42.5 µM | TGI [13]: > 60.5 µM

O=[N+]([O-])/C(C(Cl)=C(Cl)Cl)=C(/Cl)SCc1ccccc1
TGI [1]: 9.01 µM | TGI [2]: 20.8 µM | TGI [3]: 14.4 µM | TGI [4]: 32.5 µM | TGI [5]: 20.8 µM | TGI [6]: 34.6 µM | TGI [7]: 18.6 µM | TGI [8]: 3.09 µM | TGI [9]: 1.25 µM | TGI [10]: 56.7 µM | TGI [11]: 10.2 µM | TGI [12]: 17.5 µM | TGI [13]: 9.67 µM

COC(=O)/C=C(\CC(=O)OC)n1nnnc1[C@@H]1C[C@H](COC(c2ccccc2)(c2ccccc2)c2ccccc2)[C@H]2OC(C)(C)O[C@H]21
TGI [1]: > 100 µM | TGI [2]: > 100 µM | TGI [4]: > 100 µM | TGI [5]: > 100 µM | TGI [6]: > 100 µM | TGI [7]: > 100 µM | TGI [8]: > 100 µM | TGI [9]: > 100 µM | TGI [10]: > 100 µM | TGI [11]: > 100 µM | TGI [12]: > 100 µM | TGI [13]: > 100 µM

COc1ccc(/C(Br)=C2\OC(=O)c3ccccc32)cc1
TGI [1]: > 10 µM | TGI [2]: > 10 µM | TGI [3]: > 10 µM | TGI [4]: > 10 µM | TGI [5]: > 10 µM | TGI [6]: > 10 µM | TGI [7]: > 10 µM | TGI [8]: > 10 µM | TGI [9]: > 10 µM | TGI [10]: > 10 µM | TGI [11]: > 10 µM | TGI [12]: > 10 µM | TGI [13]: > 10 µM

Cc1cc(N(CCC#N)CCC#N)ccc1/C(N=Nc1cccc(Cl)c1)=N/NC(=O)c1cc(Cl)ccc1O
TGI [1]: 43.1 µM | TGI [2]: 26.9 µM | TGI [3]: 28.9 µM | TGI [4]: 42.6 µM | TGI [5]: 49.9 µM | TGI [6]: 35.4 µM | TGI [7]: 55.8 µM | TGI [8]: 64.8 µM | TGI [9]: 34.8 µM | TGI [10]: 84.2 µM | TGI [11]: > 100 µM | TGI [12]: > 100 µM | TGI [13]: > 100 µM

CCOC(=O)C(C(=O)OCC)=C1NC2(c3ccccc3Nc3ccccc32)C(C#N)S1 (configuration not stated)
TGI [1]: 15.6 µM | TGI [2]: 21.6 µM | TGI [3]: 22 µM | TGI [4]: 28.4 µM | TGI [5]: 50.7 µM | TGI [6]: 19.2 µM | TGI [7]: 18.5 µM | TGI [8]: 23.8 µM | TGI [9]: 10.1 µM | TGI [10]: 26.2 µM | TGI [11]: 51.6 µM | TGI [12]: 36.1 µM | TGI [13]: 46.3 µM
